Experiments:
Test in all cases: KinomeScan profiling
Format in all cases: binding
ACVR1B = target: T1, ACVR1B (Homo sapiens, UniProt P36896); conditions: read-out: % control
T1 construct: purchased KinomeScan®
T1 sequence (P36896 24-505): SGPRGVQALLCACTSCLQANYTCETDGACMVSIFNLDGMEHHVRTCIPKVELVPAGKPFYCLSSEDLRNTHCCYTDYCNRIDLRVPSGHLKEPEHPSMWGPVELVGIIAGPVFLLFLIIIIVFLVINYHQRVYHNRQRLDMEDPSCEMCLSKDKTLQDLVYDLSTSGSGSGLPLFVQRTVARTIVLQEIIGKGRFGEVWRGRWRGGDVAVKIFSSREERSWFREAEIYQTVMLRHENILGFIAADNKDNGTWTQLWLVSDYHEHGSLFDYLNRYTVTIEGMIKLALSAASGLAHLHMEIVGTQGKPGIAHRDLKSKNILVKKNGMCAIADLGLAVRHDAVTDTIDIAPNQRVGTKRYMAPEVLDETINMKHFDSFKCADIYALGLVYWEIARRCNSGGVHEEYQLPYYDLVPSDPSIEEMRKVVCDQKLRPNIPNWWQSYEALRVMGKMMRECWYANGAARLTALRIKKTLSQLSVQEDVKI
In short: (§1)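 At 1 μM in DMSO, compounds are run through a broad 468-member kinase panel. The luminescent read-out is normalised so that vehicle gives 100% and a positive control gives 0%; any kinase falling below 35% is treated as a target.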

PLK4 = target: T2, PLK4 (Homo sapiens, UniProt O00444); conditions: PLK4, 1 μM; read-out: % control
T2 sequence (O00444 1-970): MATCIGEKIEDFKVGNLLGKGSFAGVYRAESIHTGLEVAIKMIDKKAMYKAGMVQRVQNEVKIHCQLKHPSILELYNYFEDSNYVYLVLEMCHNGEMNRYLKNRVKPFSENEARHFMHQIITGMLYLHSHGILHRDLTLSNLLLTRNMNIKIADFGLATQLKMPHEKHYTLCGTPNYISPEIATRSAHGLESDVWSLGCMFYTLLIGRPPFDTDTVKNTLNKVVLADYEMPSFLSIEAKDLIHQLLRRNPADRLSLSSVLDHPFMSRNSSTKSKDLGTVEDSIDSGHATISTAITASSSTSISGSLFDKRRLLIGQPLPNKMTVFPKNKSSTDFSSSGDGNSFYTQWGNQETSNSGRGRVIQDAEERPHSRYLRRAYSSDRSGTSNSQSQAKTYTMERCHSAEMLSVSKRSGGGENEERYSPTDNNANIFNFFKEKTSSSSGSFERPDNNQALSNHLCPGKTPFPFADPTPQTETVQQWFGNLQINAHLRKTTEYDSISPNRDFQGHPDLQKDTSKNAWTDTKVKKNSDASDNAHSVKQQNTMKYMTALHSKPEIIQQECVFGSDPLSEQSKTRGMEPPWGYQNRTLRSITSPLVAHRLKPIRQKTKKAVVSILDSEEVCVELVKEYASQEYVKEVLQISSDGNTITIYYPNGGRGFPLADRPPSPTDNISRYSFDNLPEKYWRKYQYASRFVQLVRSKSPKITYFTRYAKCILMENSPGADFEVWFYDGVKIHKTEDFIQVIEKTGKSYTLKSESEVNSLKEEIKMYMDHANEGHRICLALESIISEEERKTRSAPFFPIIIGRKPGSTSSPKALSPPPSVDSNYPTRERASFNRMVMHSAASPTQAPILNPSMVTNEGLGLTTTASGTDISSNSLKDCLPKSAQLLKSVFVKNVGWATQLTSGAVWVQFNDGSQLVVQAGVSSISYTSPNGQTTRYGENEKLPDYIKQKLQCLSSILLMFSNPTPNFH
In short: as §1

HIPK2 = HIPK2 (Homo sapiens, UniProt Q9H2X6); conditions: HIPK2, 1 μM; read-out: % control
In short: as §1

MEK5 = target: T3, MEK5 (Homo sapiens, UniProt Q13163); conditions: MEK5, 1 μM; read-out: % control
T3 sequence (Q13163 1-448): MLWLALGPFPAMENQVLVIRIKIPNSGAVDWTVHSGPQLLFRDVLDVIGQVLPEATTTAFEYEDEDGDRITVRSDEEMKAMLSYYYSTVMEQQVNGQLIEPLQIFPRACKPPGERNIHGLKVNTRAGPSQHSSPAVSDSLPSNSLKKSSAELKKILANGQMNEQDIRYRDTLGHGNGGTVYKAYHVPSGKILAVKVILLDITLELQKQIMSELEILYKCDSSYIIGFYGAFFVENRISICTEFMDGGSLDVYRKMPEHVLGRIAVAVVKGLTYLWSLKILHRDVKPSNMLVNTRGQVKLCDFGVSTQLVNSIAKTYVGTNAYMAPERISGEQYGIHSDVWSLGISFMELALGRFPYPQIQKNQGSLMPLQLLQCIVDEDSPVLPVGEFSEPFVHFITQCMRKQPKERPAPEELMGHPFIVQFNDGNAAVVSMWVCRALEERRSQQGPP
In short: as §1

SRMS = target: T4, SRMS (Homo sapiens, UniProt Q9H3Y6); conditions: read-out: % control
T4 construct: purchased KinomeScan® (panel service)
T4 sequence (Q9H3Y6 whole entry): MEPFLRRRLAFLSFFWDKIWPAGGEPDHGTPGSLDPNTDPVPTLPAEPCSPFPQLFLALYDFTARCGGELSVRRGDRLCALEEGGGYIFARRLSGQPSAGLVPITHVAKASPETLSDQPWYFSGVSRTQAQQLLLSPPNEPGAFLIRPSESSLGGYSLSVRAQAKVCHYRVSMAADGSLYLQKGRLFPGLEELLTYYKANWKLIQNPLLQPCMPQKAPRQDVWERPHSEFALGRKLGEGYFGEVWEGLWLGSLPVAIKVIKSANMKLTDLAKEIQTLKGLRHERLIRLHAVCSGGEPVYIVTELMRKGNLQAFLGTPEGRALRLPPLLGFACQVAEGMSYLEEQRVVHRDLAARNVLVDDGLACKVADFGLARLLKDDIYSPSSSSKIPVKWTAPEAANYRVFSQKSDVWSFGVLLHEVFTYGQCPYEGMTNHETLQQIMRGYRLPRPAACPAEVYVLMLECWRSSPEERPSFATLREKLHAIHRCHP
In short: as §1

[1] = target: T5, ABL1(E255K)-phosphorylated (Homo sapiens, UniProt P00519, E255K); conditions: read-out: % control
T5 construct: purchased KinomeScan®
In short: as §1

ADCK3 = target: T6, ADCK3 (Homo sapiens, UniProt Q8NI60); conditions: ADCK3, 1 μM; read-out: % control
T6 construct: purchased KinomeScan®
T6 sequence (Q8NI60 163-647): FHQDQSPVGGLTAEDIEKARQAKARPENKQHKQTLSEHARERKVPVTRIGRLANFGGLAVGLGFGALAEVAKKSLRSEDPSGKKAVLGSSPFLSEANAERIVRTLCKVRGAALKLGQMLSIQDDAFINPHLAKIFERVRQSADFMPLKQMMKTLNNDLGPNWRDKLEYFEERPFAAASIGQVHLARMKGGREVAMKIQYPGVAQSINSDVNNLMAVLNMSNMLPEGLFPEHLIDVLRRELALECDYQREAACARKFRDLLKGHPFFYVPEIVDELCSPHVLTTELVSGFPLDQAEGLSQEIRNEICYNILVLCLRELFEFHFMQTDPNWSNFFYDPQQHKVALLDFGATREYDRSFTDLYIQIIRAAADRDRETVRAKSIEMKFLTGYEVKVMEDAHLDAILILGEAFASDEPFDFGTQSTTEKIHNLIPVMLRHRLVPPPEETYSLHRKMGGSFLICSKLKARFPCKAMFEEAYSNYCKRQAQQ
In short: as §1

BUB1 = BUB1 (Homo sapiens, UniProt O43683); conditions: BUB1, 1 μM; read-out: % control
Chain of BUB1 (O43683 whole entry): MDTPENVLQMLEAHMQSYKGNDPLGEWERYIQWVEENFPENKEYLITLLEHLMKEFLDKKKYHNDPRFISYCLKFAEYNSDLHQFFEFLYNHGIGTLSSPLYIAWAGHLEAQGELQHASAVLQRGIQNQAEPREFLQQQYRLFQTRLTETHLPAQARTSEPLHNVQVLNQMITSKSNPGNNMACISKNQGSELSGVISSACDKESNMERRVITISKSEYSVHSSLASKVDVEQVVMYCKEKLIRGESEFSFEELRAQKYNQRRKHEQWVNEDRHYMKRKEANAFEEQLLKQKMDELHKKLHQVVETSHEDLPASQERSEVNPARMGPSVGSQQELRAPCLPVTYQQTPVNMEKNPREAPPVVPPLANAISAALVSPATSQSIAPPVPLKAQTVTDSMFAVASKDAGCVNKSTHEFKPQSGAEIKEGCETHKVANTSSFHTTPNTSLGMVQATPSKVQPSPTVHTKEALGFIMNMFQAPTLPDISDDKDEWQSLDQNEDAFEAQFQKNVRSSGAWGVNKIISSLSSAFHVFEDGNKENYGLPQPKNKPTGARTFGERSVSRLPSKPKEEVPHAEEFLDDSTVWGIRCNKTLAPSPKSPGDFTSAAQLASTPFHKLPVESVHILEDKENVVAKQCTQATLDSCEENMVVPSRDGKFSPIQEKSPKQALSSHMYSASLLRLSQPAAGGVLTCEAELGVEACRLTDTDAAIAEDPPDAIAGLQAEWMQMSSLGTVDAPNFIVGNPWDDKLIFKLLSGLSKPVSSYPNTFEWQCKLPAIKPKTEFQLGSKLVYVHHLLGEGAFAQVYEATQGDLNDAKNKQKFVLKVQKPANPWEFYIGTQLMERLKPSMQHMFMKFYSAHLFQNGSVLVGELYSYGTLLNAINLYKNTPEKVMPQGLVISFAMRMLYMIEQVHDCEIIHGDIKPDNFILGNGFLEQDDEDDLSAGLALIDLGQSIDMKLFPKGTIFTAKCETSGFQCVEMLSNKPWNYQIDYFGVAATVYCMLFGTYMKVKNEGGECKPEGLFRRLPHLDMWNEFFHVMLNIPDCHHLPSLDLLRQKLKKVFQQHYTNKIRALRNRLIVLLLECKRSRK
In short: as §1

TIE2 = TIE2 (Homo sapiens, UniProt Q02763); conditions: TIE2, 1 μM; read-out: % control
Chain of TIE2 (Q02763 23-1124): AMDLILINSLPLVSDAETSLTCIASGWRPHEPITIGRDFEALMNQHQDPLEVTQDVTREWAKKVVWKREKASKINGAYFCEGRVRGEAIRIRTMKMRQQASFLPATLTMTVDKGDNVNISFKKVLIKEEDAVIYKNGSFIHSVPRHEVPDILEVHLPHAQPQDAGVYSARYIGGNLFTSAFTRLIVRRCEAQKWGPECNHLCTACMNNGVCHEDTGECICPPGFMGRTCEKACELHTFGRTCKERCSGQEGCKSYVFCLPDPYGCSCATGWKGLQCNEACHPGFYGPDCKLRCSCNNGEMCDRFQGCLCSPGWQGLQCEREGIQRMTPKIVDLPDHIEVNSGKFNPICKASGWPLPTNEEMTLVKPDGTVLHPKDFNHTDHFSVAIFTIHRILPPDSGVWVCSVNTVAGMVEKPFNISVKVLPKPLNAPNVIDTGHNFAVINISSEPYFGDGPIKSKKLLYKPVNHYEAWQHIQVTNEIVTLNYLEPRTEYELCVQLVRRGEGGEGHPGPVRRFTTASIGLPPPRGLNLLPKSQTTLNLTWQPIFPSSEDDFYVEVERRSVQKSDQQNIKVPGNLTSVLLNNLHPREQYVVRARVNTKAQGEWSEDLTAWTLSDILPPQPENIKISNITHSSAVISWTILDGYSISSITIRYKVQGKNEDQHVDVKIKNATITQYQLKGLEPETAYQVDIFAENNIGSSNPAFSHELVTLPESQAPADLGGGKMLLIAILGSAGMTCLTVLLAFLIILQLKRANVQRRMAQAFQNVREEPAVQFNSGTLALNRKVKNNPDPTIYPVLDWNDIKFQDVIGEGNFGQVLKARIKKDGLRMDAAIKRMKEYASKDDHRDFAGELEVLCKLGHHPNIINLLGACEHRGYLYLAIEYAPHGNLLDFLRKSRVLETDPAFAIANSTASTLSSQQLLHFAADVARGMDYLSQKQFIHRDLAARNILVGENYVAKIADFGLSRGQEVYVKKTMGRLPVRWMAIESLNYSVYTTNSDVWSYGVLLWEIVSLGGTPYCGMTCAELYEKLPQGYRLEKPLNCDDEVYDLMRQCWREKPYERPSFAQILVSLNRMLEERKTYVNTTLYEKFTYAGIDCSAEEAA
In short: as §1

EPHA5 = EPHA5 (Homo sapiens, UniProt P54756); conditions: EPHA5, 1 μM; read-out: % control
Chain of EPHA5 (P54756 25-1037): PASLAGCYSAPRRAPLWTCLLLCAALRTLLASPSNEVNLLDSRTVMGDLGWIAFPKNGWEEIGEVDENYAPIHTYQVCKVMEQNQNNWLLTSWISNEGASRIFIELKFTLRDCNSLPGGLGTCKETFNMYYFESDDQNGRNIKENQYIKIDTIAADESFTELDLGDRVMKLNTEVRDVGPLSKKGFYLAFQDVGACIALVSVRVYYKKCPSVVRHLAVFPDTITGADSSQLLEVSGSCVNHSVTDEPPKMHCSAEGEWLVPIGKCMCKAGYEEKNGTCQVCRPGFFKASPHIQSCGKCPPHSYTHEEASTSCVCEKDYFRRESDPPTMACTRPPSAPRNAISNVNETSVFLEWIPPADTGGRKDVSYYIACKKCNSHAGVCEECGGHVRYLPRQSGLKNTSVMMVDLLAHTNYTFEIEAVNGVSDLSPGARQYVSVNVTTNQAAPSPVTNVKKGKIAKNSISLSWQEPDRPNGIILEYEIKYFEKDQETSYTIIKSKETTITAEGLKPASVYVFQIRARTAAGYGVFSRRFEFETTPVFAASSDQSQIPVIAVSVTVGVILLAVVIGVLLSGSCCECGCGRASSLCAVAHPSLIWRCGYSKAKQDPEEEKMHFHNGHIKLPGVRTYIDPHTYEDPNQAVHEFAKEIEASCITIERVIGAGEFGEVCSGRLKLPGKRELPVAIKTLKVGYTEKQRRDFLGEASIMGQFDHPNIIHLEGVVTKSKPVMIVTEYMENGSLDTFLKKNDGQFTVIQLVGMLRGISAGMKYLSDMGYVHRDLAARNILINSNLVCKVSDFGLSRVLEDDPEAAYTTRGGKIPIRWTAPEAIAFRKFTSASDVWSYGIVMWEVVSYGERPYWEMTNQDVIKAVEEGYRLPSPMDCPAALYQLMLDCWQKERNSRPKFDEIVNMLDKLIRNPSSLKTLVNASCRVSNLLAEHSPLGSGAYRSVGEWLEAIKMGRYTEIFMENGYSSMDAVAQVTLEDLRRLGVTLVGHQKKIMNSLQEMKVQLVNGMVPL
In short: as §1

MLK3 = MLK3 (Homo sapiens, UniProt Q16584); conditions: MLK3, 1 μM; read-out: % control
Chain of MLK3 (Q16584 whole entry): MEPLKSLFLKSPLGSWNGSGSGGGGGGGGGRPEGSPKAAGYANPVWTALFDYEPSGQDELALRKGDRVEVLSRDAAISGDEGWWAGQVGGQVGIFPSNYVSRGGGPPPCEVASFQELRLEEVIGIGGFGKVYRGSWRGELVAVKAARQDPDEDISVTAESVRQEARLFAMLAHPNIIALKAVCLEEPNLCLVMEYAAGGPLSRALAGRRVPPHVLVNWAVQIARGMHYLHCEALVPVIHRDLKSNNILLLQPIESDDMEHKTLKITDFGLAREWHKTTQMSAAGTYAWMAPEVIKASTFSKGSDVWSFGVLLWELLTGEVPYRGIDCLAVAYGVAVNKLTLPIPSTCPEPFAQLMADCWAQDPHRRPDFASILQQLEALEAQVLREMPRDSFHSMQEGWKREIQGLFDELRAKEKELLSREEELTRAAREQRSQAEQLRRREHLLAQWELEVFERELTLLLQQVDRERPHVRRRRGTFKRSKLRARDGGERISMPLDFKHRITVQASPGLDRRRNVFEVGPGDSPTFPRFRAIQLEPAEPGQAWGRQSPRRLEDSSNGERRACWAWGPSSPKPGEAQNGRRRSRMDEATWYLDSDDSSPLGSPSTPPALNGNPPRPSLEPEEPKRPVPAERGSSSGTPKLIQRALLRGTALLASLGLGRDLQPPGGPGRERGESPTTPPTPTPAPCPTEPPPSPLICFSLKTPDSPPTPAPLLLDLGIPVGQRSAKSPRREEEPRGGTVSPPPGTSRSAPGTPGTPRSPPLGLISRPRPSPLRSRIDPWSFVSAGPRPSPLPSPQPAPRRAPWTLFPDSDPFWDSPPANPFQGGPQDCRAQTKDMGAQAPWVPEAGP
In short: as §1

## CNc1c(-c2cnn([C@H]3CCN(C(C)=O)C[C@@H]3F)c2)cnc2[nH]cc(Cl)c12 [Compound 77, 1-((3S,4S)-4-(4-(3-chloro-4-(methylamino)-1H-pyrrolo[2,3-b]pyridin-5-yl)-1H-pyrazol-1-yl)-3-fluoropiperidin-1-yl)ethan-1-one]
ACVR1B
  remaining binding at 1 µM: 83%
PLK4
  remaining binding at 1 µM: 27%
HIPK2
  remaining binding at 1 µM: 81%
MEK5
  remaining binding at 1 µM: 3.2%
SRMS
  remaining binding at 1 µM: 90%
[1]
  remaining binding at 1 µM: 73%
ADCK3
  remaining binding at 1 µM: 100%
BUB1
  remaining binding at 1 µM: 80%
TIE2
  remaining binding at 1 µM: 80%
EPHA5
  remaining binding at 1 µM: 96%
MLK3
  remaining binding at 1 µM: 93%

## O=C(c1ccc(-c2cnc3[nH]cc(Cl)c3c2NC2CCCC2)cc1)N1CCC(N2CCOCC2)CC1 [Compound 101, (4-(3-chloro-4-(cyclopentylamino)-1H-pyrrolo[2,3-b]pyridin-5-yl)phenyl)(4-morpholinopiperidin-1-yl)methanone]
ACVR1B
  remaining binding at 1 µM: 98%
PLK4
  remaining binding at 1 µM: 78%
HIPK2
  remaining binding at 1 µM: 100%
MEK5
  remaining binding at 1 µM: 100%
SRMS
  remaining binding at 1 µM: 72%
[1]
  remaining binding at 1 µM: 100%
ADCK3
  remaining binding at 1 µM: 68%
BUB1
  remaining binding at 1 µM: 100%
TIE2
  remaining binding at 1 µM: 97%
EPHA5
  remaining binding at 1 µM: 98%
MLK3
  remaining binding at 1 µM: 100%

## CNc1c(-c2ccc(C(=O)N3CCC(N4CCOCC4)CC3)cc2)cnc2[nH]cc(Cl)c12 [Compound 96, (4-(3-chloro-4-(methylamino)-1H-pyrrolo[2,3-b]pyridin-5-yl)phenyl)(4-morpholinopiperidin-1-yl)methanone]
ACVR1B
  remaining binding at 1 µM: 74%
PLK4
  remaining binding at 1 µM: 27%
HIPK2
  remaining binding at 1 µM: 74%
MEK5
  remaining binding at 1 µM: 7.3%
SRMS
  remaining binding at 1 µM: 100%
[1]
  remaining binding at 1 µM: 92%
ADCK3
  remaining binding at 1 µM: 100%
BUB1
  remaining binding at 1 µM: 86%
TIE2
  remaining binding at 1 µM: 81%
EPHA5
  remaining binding at 1 µM: 100%
MLK3
  remaining binding at 1 µM: 99%
